Measurements taken from ChEMBL document CHEMBL1146664, “Cytochrome P450/NADPH-dependent formation of trans epoxides from trans-arachidonic acids” (Bioorg Med Chem Lett, 2004).

Assay: Level reaching in blood plasma of rat or human was determined
Type: ADME, cell-free

Activity [µM]	Structure (SMILES)
0.5	CCCCCC(O)C(O)C/C=C\C/C=C\C/C=C\CCCC(=O)O (stereo not given)
0.5	CCCCC/C=C/CC(O)C(O)C/C=C\C/C=C\CCCC(=O)O (trans isomer)

The next lines start with the molecule.

Structure (SMILES)	Activity [µM]
CCCCC/C=C/CC1OC1C/C=C\C/C=C\CCCC(=O)O (stereo not given)	0.5
CCCCC/C=C/C/C=C\C/C=C\C/C=C\CCCC(=O)O	0.5
CCCCCC1OC1C/C=C\C/C=C\C/C=C\CCCC(=O)O (trans isomer)	0.5
